{"source": "paper PMC2365101", "about": "“Anti-Inflammatory Activity of (Polyphenolic)-Sulfonates and Their Sodium Salts in Rodents” (Metal-Based Drugs, 1998)", "key": {"[1]": {"tested_on": "IL-8 high affinity receptor on chinese hamster ovarian carcinoma K-1 cells", "experiment": "125I-IL-8 high affinity binding to chinese hamster ovarian carcinoma K-1 cells", "settings": "for 125I-IL-8 binding, Percent of Control: N=6"}, "[2]": {"molecular_target": "J774-A1 macrophage elastase", "experiment": "Elastase activity in J774-A1 macrophages", "assay_type": "biochemical, mouse", "settings": "120 min"}, "[3]": {"tested_on": "CF1 male mice, LPS Salmonella abortus equi induced death", "experiment": "Protection against septic shock (LPS induced endotoxic shock)", "assay_type": "in vivo", "settings": "for Percent Survival at 52 hr: LPS 10 mg/kg, CF1 male mice, N=6", "text": "Few reports in the literature indicate interaction at these receptor sites other than by peptides or antibodies. […] Blocking these receptors is desirable because the entire inflammation cascade of events is triggered by the early release of TNFa and IL-1. […] Radioisotopes were obtained from New England Nuclear [Dupont, Boston, MA] and substrates and co- factors were obtained from Sigma Chemical Co. [St. Louis, MO]. […] Cell lines were obtained from American Type Culture Collection [Rockville, MD]. In Vivo Tests Anti-inflammatory screen in mice: Male CF male mice weighing 28-32g obtained from Jackson Lab. [Bar Harbor, […]] were used to screen agents at 8 or 16 mg/kg intraperitoneal [I.P.] x 2 administered 3 hr and 30 min prior to administering the irritant, according to Winter's protocol. Evaluation of the induced edema was made by injecting 2% carrageenan in 0.9% saline into the plantar region of the foot. The opposite foot injected with 0.9% isotonic saline was used as a base line. […] Salmonella abortus equi [Lot # 69F4003] […] Drugs from 2 to 16 mg/kg, I.P. were administered 2 hr prior and 2 hr post-injection of the LPS and then subsequently for every 24 hr for the length ofthe animals' lives. Deaths were recorded every 12 hr and continued for 96 hr. […] In vitro TNFa andIL-1 Measurements and Cellular Regulation IC-21 mouse macrophages were maintained in RPMI-1640 + 10% FCS + P/S. After the cells had grown to confluency, E. coli LPS at 10 Ixg/ml was added to the medium. Agents were incubated at 12.5 to 100 µM final concentration for 18 hr. The medium (100 btl) was collected for TNFCt determinations. Interleukin-1 [IL-1] release was determined using P388D1 cells which were maintained in RPMI-1640 + 10% FCS + P/S. The L929 bioassay was used to quantitate the TNF and the IL-1 levels. The L929 mouse fibroblasts were grown in DMEM + 10% FCS + P/S to confluency in 96 well plates and incubated with 100 tl ofmedium from […] or P388D cells after 18 hr. The cells were stained with 0.2% crystal violet in 20% MeOH and read at 580 nm using a Molecular Devices scanner (SOFT-max program). High Affinity Binding to Receptors on L929-106 Cells Two laCi of 125I-TNFct (human recombinant, 30 mCi/tg New England Nuclear) or 125I-IL-1 (70-120[.t Ci/lxg,New England Nuclear) was added to confluency L929 cells for 90 min or 5 hr, respectively with 25, 50 and 100 tM of the test compounds 12]. The cells were washed repeatedly with isotonic saline, pH.7.2 and aliquots counted. Prostaglandin cylcooxygenase activity Mouse J774AI macrophages maintained in Dulbecco's modified Eagle's medium + 15% FCS + P/S. Cells (5 x 106) were incubated with agents (5 to 100 ].tM final concentration) and 3H-arachidonic acid (100 Ci/mol) for 60 min at 37C in a CO2 incubator. The reaction was terminated with 2N HCI, the mixture extracted 2 X with ether, and the organic layer evaporated."}, "[4]": {"molecular_target": "T1, IL-2 high affinity receptor on HUT78 T lymphoma cell membrane (Homo sapiens, UniProt P01589+P14784)", "T1 construct": "host or cells: HuT78 T lymphoma cells", "T1 sequence (P01589 22-272)": "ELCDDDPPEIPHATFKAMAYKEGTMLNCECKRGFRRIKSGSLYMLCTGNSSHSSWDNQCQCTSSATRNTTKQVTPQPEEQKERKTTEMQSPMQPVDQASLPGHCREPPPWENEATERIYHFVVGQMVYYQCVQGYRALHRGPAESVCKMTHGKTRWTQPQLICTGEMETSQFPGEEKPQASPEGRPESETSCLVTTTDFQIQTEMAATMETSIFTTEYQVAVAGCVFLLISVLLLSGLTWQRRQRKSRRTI", "T1 sequence (P14784 27-551)": "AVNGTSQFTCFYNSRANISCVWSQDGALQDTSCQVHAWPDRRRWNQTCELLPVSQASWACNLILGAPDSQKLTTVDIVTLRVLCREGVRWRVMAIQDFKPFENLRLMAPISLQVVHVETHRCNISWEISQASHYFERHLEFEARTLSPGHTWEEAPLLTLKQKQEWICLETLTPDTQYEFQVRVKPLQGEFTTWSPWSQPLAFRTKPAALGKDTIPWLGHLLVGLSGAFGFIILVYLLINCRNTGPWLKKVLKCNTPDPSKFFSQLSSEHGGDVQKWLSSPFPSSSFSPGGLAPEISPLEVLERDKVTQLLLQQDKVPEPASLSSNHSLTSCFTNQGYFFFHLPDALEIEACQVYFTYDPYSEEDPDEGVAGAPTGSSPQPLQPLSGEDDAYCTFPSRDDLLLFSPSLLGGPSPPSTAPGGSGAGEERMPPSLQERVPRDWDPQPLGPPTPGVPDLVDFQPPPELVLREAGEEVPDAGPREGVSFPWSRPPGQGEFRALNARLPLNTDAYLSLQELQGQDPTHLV", "experiment": "125I-IL-2 high affinity binding to HuT78 T lymphoma cells", "settings": "for 125I-IL-2 binding, Percent of Control: N=6"}, "[5]": {"tested_on": "J774 A1 mouse macrophages adhesion to L929 fibroblasts", "experiment": "Adhesion of J-774 A1 mouse macrophages to confluent L929 fibroblasts", "assay_type": "cell-based", "settings": "N=6"}, "[6]": {"tested_on": "RPMI 1788 leukocytes adhesion to L929 fibroblasts", "experiment": "Adhesion of human leukocytes RPMI-1788 to confluent L929 fibroblasts", "assay_type": "cell-based", "settings": "for Adhesion, Percent of Control: N=6"}}, "data": [{"smiles": "COc1c2cc(S(=O)(=O)[O-])cc1Cc1cc(S(=O)(=O)[O-])cc(c1OC)Cc1cc(S(=O)(=O)[O-])cc(c1OC)Cc1cc(S(=O)(=O)[O-])cc(c1OC)Cc1cc(S(=O)(=O)[O-])cc(c1OC)Cc1cc(S(=O)(=O)[O-])cc(c1OC)C2.[Na+].[Na+].[Na+].[Na+].[Na+].[Na+]", "note": "[Compound 6]", "values": [{"measurement": "125I-IL-8 binding, Percent of Control", "setting": "[1]; 50 μM, 5 Hours", "value": "54 + 5% of Control"}, {"measurement": "125I-IL-8 binding, Percent of Control", "setting": "[1]; 50 μM, 24 Hours", "value": "65 + 7% of Control"}, {"measurement": "125I-IL-8 binding, Percent of Control", "setting": "[1]; 100 μM, 24 Hours", "value": "55 + 4% of Control"}, {"measurement": "reduction of IL-8 high affinity binding", "setting": "[1]; at 5 hr and 24 hr", "value": "~45", "unit": "%"}, {"measurement": "IC50 Elastase J774-A1", "setting": "[2]", "value": "Increased"}, {"measurement": "Percent Survival at 52 hr", "setting": "[3]; 8 mg/Kg I.P.", "value": 50, "unit": "%"}, {"measurement": "Percent Survival at 52 hr", "setting": "[3]; 16 mg/Kg I.P.", "value": 100, "unit": "%"}, {"measurement": "protection from LPS induced death", "setting": "[3]; 16 mg/kg", "value": 100, "unit": "%"}, {"measurement": "125I-IL-2 binding, Percent of Control", "setting": "[4]; 5 μM, 2 Hours", "value": "142 + 6% of Control"}, {"measurement": "125I-IL-2 binding, Percent of Control", "setting": "[4]; 5 μM, 5 Hours", "value": "100 + 6% of Control"}, {"measurement": "125I-IL-2 binding, Percent of Control", "setting": "[4]; 12.5 μM, 2 Hours", "value": "115 + 5% of Control"}, {"measurement": "125I-IL-2 binding, Percent of Control", "setting": "[4]; 12.5 μM, 5 Hours", "value": "92 + 6% of Control"}, {"measurement": "125I-IL-2 binding, Percent of Control", "setting": "[4]; 25 μM, 2 Hours", "value": "85 + 5% of Control"}, {"measurement": "125I-IL-2 binding, Percent of Control", "setting": "[4]; 25 μM, 5 Hours", "value": "78 + 5% of Control"}, {"measurement": "125I-IL-2 binding, Percent of Control", "setting": "[4]; 50 μM, 2 Hours", "value": "81 + 4% of Control"}, {"measurement": "125I-IL-2 binding, Percent of Control", "setting": "[4]; 50 μM, 5 Hours", "value": "55 + 4% of Control"}, {"measurement": "reduction of IL-2 high affinity binding", "setting": "[4]; 50 μM, 5 hr", "value": 45, "unit": "%"}, {"measurement": "Adhesion, Percent of Control", "setting": "[5]; 5 μM, 2 Hours", "value": "123 + 6% of Control"}, {"measurement": "Adhesion, Percent of Control", "setting": "[5]; 5 μM, 5 Hours", "value": "88 + 5% of Control"}, {"measurement": "Adhesion, Percent of Control", "setting": "[5]; 5 μM, 90 min", "value": "137 + 6% of Control"}, {"measurement": "Adhesion, Percent of Control", "setting": "[5]; 12.5 μM, 2 Hours", "value": "77 + 6% of Control"}, {"measurement": "Adhesion, Percent of Control", "setting": "[5]; 12.5 μM, 5 Hours", "value": "109 + 6% of Control"}, {"measurement": "Adhesion, Percent of Control", "setting": "[5]; 12.5 μM, 90 min", "value": "133 + 5% of Control"}, {"measurement": "Adhesion, Percent of Control", "setting": "[5]; 25 μM, 2 Hours", "value": "118 + 7% of Control"}, {"measurement": "Adhesion, Percent of Control", "setting": "[5]; 25 μM, 5 Hours", "value": "131 + 6% of Control"}, {"measurement": "Adhesion, Percent of Control", "setting": "[5]; 25 μM, 90 min", "value": "128 + 7% of Control"}, {"measurement": "Adhesion, Percent of Control", "setting": "[5]; 50 μM, 2 Hours", "value": "122 + 6% of Control"}, {"measurement": "Adhesion, Percent of Control", "setting": "[5]; 50 μM, 5 Hours", "value": "119 + 5% of Control"}, {"measurement": "Adhesion, Percent of Control", "setting": "[5]; 50 μM, 90 min", "value": "103 + 7% of Control"}, {"measurement": "Adhesion, Percent of Control", "setting": "[6]; 5 μM, 60 min", "value": "46 + 4% of Control"}, {"measurement": "Adhesion, Percent of Control", "setting": "[6]; 5 μM, 90 min", "value": "62 + 5% of Control"}, {"measurement": "Adhesion, Percent of Control", "setting": "[6]; 12.5 μM, 2 Hours", "value": "125 + 5% of Control"}, {"measurement": "Adhesion, Percent of Control", "setting": "[6]; 12.5 μM, 5 Hours", "value": "92 + 4% of Control"}, {"measurement": "Adhesion, Percent of Control", "setting": "[6]; 12.5 μM, 60 min", "value": "49 + 6% of Control"}, {"measurement": "Adhesion, Percent of Control", "setting": "[6]; 12.5 μM, 90 min", "value": "55 + 6% of Control"}, {"measurement": "Adhesion, Percent of Control", "setting": "[6]; 25 μM, 2 Hours", "value": "100 + 6% of Control"}, {"measurement": "Adhesion, Percent of Control", "setting": "[6]; 25 μM, 5 Hours", "value": "95 + 5% of Control"}, {"measurement": "Adhesion, Percent of Control", "setting": "[6]; 25 μM, 60 min", "value": "30 + 3% of Control"}, {"measurement": "Adhesion, Percent of Control", "setting": "[6]; 25 μM, 90 min", "value": "71 + 5% of Control"}, {"measurement": "Adhesion, Percent of Control", "setting": "[6]; 50 μM, 2 Hours", "value": "108 + 6% of Control"}, {"measurement": "Adhesion, Percent of Control", "setting": "[6]; 50 μM, 5 Hours", "value": "88+ 7% of Control"}, {"measurement": "Adhesion, Percent of Control", "setting": "[6]; 50 μM, 60 min", "value": "41 + 5% of Control"}, {"measurement": "reducing the adhesion of human leukocytes", "setting": "[6]; 5 to 50 μM, at 2 and 5 hr", "value": "not effective"}, {"measurement": "reducing significantly the adhesion of human leukocytes", "setting": "[6]; 5 to 50 μM, at 60 and 90 min", "value": "effective"}]}]}
